Data set [1] concerns human ovarian cancer, human prostate cancer, human breast cancer, human multiple myeloma. The note with it: cited from earlier work.
For data set [2] the following is noted: cited from earlier work.
In data set [3] the test system is Human pancreatic cancer Panc-1 cells. Description: Panc-1 human pancreatic cancer xenograft mouse model. As to conditions: post-treatment observation 19 days. It counts as in vivo. The method, then: Human pancreatic cancer Panc-1 cells (2×10^6) are implanted subcutaneously into male athymic nude (Ncr) mice. Following establishment of tumor nodules (about 50 mm^3), the animals are randomized into four groups of five animals per group. The animals are treated intraperitoneally with one of four treatments: β-lapachone at 40 mg/kg in 40% hydroxypropy-β-cyclodextran; gemcitabine (Gemzar®) at 120 mg/kg (in PBS); β-lapachone (40 mg/kg)+gemcitabine (120 mg/kg); or vehicle control. The mice receive a total of ten treatments, administered every three days (on study day 5, 8, 11, 14, 17, 20, 31, 34, 37, and 40). The combination therapy group receives β-lapachone and gemcitabine on the same day in each treatment. Following treatment, the animals are observed for an additional 19 days. Tumors are measured throughout the treatment and post-treatment periods.

Data set [4] relates to human breast cancer cells. The note with it: cited from earlier work.
The subject of data set [5] is ovary, colon, and pancreatic cancer cells. The note with it: through induction of caspase; cited from earlier work.
The conditions of data set [6]: in vivo; cited from earlier work.
Data set [7] has as its system A549 human lung cancer cells. Description: A549 human lung cancer xenograft mouse model. As to conditions: for tumor growth during treatment: eight treatments. It counts as in vivo. As to the method: The anti-tumor activity of β-lapachone is examined using a human lung cancer xenograft model. Briefly, athymic female nude mice (Ncr) are inoculated subcutaneously with 4×10^6 A549 human lung cancer cells, and the tumors are allowed to grow to approximately 50 mm^3 in size. The animals are randomized into five groups of seven animals per group, and treated intraperitoneally every three days with one of the following five regimens: β-lapachone at 40 mg/kg in 40% hydroxypropy-β-cyclodextran (“HPBCD”); β-lapachone at 60 mg/kg in 40% HPBCD; gemcitabine (GEMZAR®) at 120 mg/kg in PBS; β-lapachone (40 mg/kg)+gemcitabine (120 mg/kg); or vehicle control (40% HPBCD). The combination therapy group receives treatments with β-lapachone and gemcitabine at the indicated concentrations on the same day, every three days. Mice receive a total of eight treatments. Mean tumor volume is analyzed; data points in FIG. 2 represent the arithmetic mean+/−SEM of five tumors.
(A xenograft is tissue or cells of one species grown in another, often human tumour cells in immunodeficient mice.)

Data set [8] deals with CEM T lymphoblastoid cells. The note with it: cited from earlier work.

Counter-ions that a name gives are not always drawn.

`CC1(C)CCC2=C(O1)c1ccccc1C(=O)C2=O` [β-lapachone, 3,4-dihydro-2,2-dimethyl-2H-naphtho[1,2-b]pyran-5,6-dione]: in data set [1], the “anti-tumor effect as a single agent” value is listed as “decrease the number of tumors, reduce tumor size, or increase survival time”. Moreover, in data set [2], the water solubility entry is listed as “non-water soluble”. Besides, the “tumor re-growth after termination of treatment” value in data set [3] (β-lapachone 40 mg/kg) is given as “no significant re-growth”. Also, the “type of cell death induced” value is listed as “induces necrosis” in data set [4] and “apoptosis” in data set [5]. The tolerability result in data set [6] is on record as “generally well-tolerated”. Besides, the “tumor growth during treatment” value in data set [7] (β-lapachone 60 mg/kg intraperitoneally every three days) is recorded as “retarded tumor growth”. For the same compound, the “retardation of tumor growth, 60 mg/kg compared with 40 mg/kg” value in data set [7] (β-lapachone 60 mg/kg versus 40 mg/kg) was “more effective at retarding tumor growth”.
As to `Nc1ccn([C@@H]2O[C@H](CO)[C@@H](O)C2(F)F)c(=O)n1` [gemcitabine, 2′-deoxy-2′,2′-difluorocytidine monohydrochloride (β-isomer), reference compound], the “internucleosomal DNA fragmentation” value in data set [8] was “induces internucleosomal DNA fragmentation”. The “tumor re-growth after termination of treatment” value in data set [3] (gemcitabine 120 mg/kg) worked out at 400%. Moreover, in data set [7] (gemcitabine 120 mg/kg intraperitoneally every three days), the “tumor growth during treatment” value is given as “retarded tumor growth”.

(Values after patent US20050192247A1, “Method of treating cancers” (priority 2004, published 2005).)
